Results taken from paper PMC6826492, “Experimental and Computational Study of the Antioxidative Potential of Novel Nitro and Amino Substituted Benzimidazole/Benzothiazole-2-Carboxamides with Antiproliferative Activity” (Antioxidants, 2019).
Where two headings read alike, the source gives them in different places.

What was measured:
[1] = DPPH free radical scavenging; assay type: biochemical; settings: for IC50: after 30 min of incubation with 100 μM DPPH
Experimental: The reducing activity of investigated systems was achieved by the DPPH method according to previously described procedures with modifications to assure the use in a 96-well microplate. Briefly, equal volumes of various concentrations of tested molecules (dissolved in DMSO) were added to the solution of DPPH (final concentration 50 µM in absolute ethanol). Ethanol and DMSO were used as control solutions in line with earlier reports.

[2] = cited from earlier work
[3] = Ferric reducing/antioxidant power (FRAP assay); assay type: biochemical; settings: for FRAP: means ± standard deviation, absorbance at 593 nm
Experimental: The FRAP method was carried out according to previously described procedures with some modifications to be compatible with an assay on a 96-well microplate. All tests were done in triplicate, while the obtained results were averaged and reported as Fe^2+ equivalents (Fe^2+ µmol).
By using the FRAP assay, we investigated the reducing power of investigated systems, which was monitored by the corresponding changes in the absorbance at 593 nm. This method is based on the ability of systems to reduce the ferric tripyridyl triazine complex (TPTZ) to the ferrous state (Fe^2+), which can be seen by an intense blue color. […] Good reducing ability was shown by the trimethoxy substituted benzimidazole-2-carboxamide 14 bearing the amino group (1102.5 ± 14.1 mmolFe^2+/mmolC).

MCF-7 (breast carcinoma) = experiment: Antiproliferative activity in vitro (MTT assay); assay type: cell-based, human; settings: Homo sapiens, MCF7, 72 h, 72 h incubation, concentration that causes 50% growth inhibition
Experimental: (§1) The experiments were performed on four human cell lines, including HCT 116 (colon carcinoma), H 460 (lung carcinoma), MCF-7 (breast carcinoma), and HEK 293 (human embryonic kidney cells), in line with previously published experimental procedures. Briefly, the cells were grown in DMEM medium with the addition of 10% fetal bovine serum (FBS), 2 mM L-glutamine, 100 U/mL penicillin, and 100 µg/mL streptomycin, and cultured as monolayers at 37 °C in a humidified atmosphere with 5% CO2. Cells were seeded at 2 × 10^3 cells/well in a standard 96-well microtiter plates and left to attach for 24 h. The next day, a test compound was added in five serial 10-fold dilutions. The rate of cell growth was evaluated after 72 h of incubation with MTT assays. The obtained results are expressed as IC50 values, calculated from the concentration-response curve using linear regression analysis by fitting the test concentrations that give PG values above and below the reference value (i.e., 50%). Each test was performed in quadruplicate in at least two individual experiments.

[4] = test system: HCT 116 (colon carcinoma); experiment: Antiproliferative activity in vitro (MTT assay); assay type: cell-based, human; settings: Homo sapiens, HCT-116, 72 h, 72 h incubation, concentration that causes 50% growth inhibition, read-out: IC50 HCT116
Experimental: as §1

H 460 (lung carcinoma) = experiment: Antiproliferative activity in vitro (MTT assay); assay type: cell-based, human; settings: Homo sapiens, NCI-H460, 72 h, 72 h incubation, concentration that causes 50% growth inhibition
Experimental: as §1

HCT 116 cells = experiment: Antioxidative activity assay in cells (TBHP-induced ROS, DCFH-DA); assay type: cell-based, human; settings: 100 µM TBHP + 10 µM compound, 1 h, DCFH-DA fluorescence
Experimental: For the antioxidative activity assay, 2.5 × 10^4 cells were seeded into 96-well microtiter plates and left to attach for 24 h. The next day, cells were washed with PBS and incubated in FBS-free DMEM medium with 25 µM DCFH-DA fluorescence dye. After 45 min of incubation, medium was discarded, and cells were washed with PBS. After the washing step, cells were incubated with 100 µM tert-Butyl hydroperoxide (TBHP) alone or in combination with antioxidative agents (50 mM N-Acetyl-L-cysteine—NAC, or 10 µM tested compounds) in PBS, for 1 h at 37 °C. DCFH-DA fluorescence was recorded on a microplate fluorimeter reader (Tecan) with excitation beam of 485 nm, while the emitted fluorescence was collected at 535 nm. All tests were presented as medians of three independent measurements, done in triplicates. One-way ANOVA with Tukey’s post-hoc test was used for statistical analysis, * p < 0.05, ** p < 0.01, *** p < 0.001.
In order to test the antioxidant activity of selected systems in tumor cells (Figure 1), we treated HCT 116 cells with tert-Butyl hydroperoxide (TBHP), a substance commonly used for inducing oxidative stress in cells and tissues, alone or in a combination with a known antioxidative agent N-Acetyl-L-cysteine (NAC) or tested compounds [35]. We measured the formation of oxidative stress by-products using 2′,7′-dichlorodihydrofluorescein diacetate (DCFH-DA). We selected system 8 showing pronounced antiproliferative/cytotoxic activity, but no antioxidant capacity in DPPH/FRAP assays, 29 showing exceptionally pronounced antioxidative activity in DPPH/FRAP tests, 14 showing negligible antiproliferative but strong antioxidant capacity in both DPPH/FRAP assays, and 26 showing similarly strong antiproliferative and radical trapping activity in DPPH assay, but rather modest reducing power in FRAP assay. None of the compounds influenced the basal level of ROS in the cells. […] On the other hand, no effect was obtained upon treatment with either 8 or 14 (Figure 1). We additionally tested the impact of the selected compounds on cellular and mitochondrial ROS production in HCT 116 cells using fluorescent dyes, DCFH-DA for cellular and MitoSOX for mitochondrial ROS detection (Supplementary Materials, Figures S53 and S54).
Figure 1 Antioxidative activity of selected systems. HCT 116 cells were treated with the combination of tert-Butyl hydroperoxide (TBHP, 100 uM) and N-Acetyl-L-cysteine (NAC, 50 mM) or tested compounds 8, 14, 26, and 29 (10 µM) for 1 h. The level of reactive oxygen species (ROS) was measured with fluorescent dye 2′,7′-dichlorodihydrofluorescein diacetate (DCFH-DA) using fluorimeter. Treatment with 100 uM TBHP alone was used as a control for ROS induction. Data presented here are the results of three independent measurements, done in triplicates. […]

[5] = test system: HEK 293 (human embryonic kidney cells); experiment: Cytotoxic activity on non-cancerous cells (MTT assay); assay type: cell-based; settings: Homo sapiens, HEK293; non-tumor cell line; 72 h incubation, MTT; concentration that causes 50% growth inhibition
Experimental: as §1

HCT116 cell line [6] = experiment: Cellular ROS measurement assay (DCFH-DA, flow cytometry); assay type: cell-based, human; settings: HCT116, 10 µM compounds (2 mM H2O2 positive control), 1 h, DCF-DA; *** p < 0.001, ns not significant
Experimental: Figure S53. Impact of compounds on cellular ROS production was measured with fluorescent dye DCF-DA in HCT116 cell line, after the treatment with 10 µM compounds for 1h. H 2O2 was used as a positive control. Data presented here are the results of 3 independent measurements, done in duplicates. One-way ANOVA with Tukey’s post-hoc test was used for statistical analysis, ***- p < 0.001. […]
Human colon carcinoma cell line HCT116 was grown in DMEM medium with the addition of 10% fetal bovine serum (FBS), 2 mM L-glutamine, 100 U/ml penicillin and 100 µg/ml streptomycin, and cultured as monolayers at 37°C in a humidified atmosphere with 5% CO2.
Cellular ROS measurement assay
For the cellular ROS measurement assay, 2.5 × 10^4 cells were seeded into 96-well microtiter plates 24h prior to experiment. Next day, cells were trypsinized and incubated in FBS-free DMEM medium with 20 µM DCFH-DA fluorescence dye for 45 minutes. After the incubation, compounds were added without washing and cells were treated with 2 mM H 2O2 as a positive control and 10 µM compounds 8, 14 and 26 for 1 hour. Cells were washed in PBS and DCFH-DA signal was measured by flow cytometry, in FL1 channel. […]

HCT116 cell line [7] = experiment: Mitochondrial ROS measurement assay (MitoSOX, flow cytometry); assay type: cell-based, human; settings: HCT116, 10 µM compounds (3 µM Rotenone positive control), 1 h, *** p < 0.001, ns not significant
[8] = DFT calculation of bond dissociation and ionization energies; settings: for BDE lower than BDE (M1): difference to M1
Text: All geometrical parameters were optimized employing the density functional theory (DFT) B3LYP functional (unrestricted UB3LYP for the radicals), together with the 6–31+G(d) basis set, followed by the vibrational analysis using the Gaussian 16 software. Thermal corrections were extracted from the matching uncorrected vibrational frequencies, also used to confirm the obtained structures as true minima by the lack of imaginary frequencies. The final electronic energies were refined through single-point calculations with a highly flexible 6–311++G(2df,2pd) basis set. Solvent effects were considered through the implicit SMD polarizable continuum model with all parameters for pure ethanol (ε = 24.852), giving the B3LYP/6–311++G(2df,2pd)//(SMD)/B3LYP/6–31+G(d) model employed here, being fully in line with our earlier reports. As such, all computational values correspond to differences in Gibbs free energies obtained at a room temperature of 298 K and a normal pressure of 1 atm. The choice of this computational setup was additionally prompted by its success in modeling mechanisms of various antioxidants, and in reproducing kinetic and thermodynamic parameters of a variety of organic and enzymatic reactions. According to the literature, there are several mechanisms that relate to the antioxidative properties of molecules. Here, we inspected the two most frequent, and usually thermodynamically most preferred antioxidant mechanisms, namely hydrogen atom transfer (HAT), and single electron transfer (SET) that is commonly followed by proton transfer (SET-PT). All these mechanisms result in the formation of the same antioxidant radical.
HAT is a major route where the H atom (hydrogen radical, H•) is directly transferred from an antioxidant (M) to a free radical accompanied by the homolytic M–H bond cleavage. The capacity of this process is governed by the M–H bond dissociation energy (BDE), calculated as:M–H → M• + H• BDE = G(M•) + G(H•) − G(M–H).
Scavenging the free radicals can also be accomplished by donating an electron from a system M in the SET-PT process. This process is driven by the adiabatic ionization energy (IE) necessary to eject a single electron from M, calculated as:M → M•^+ + e^− IE = G(M•^+) − G(M).

[9] = monocationic, in acetonitrile ref 39

Cc1cc(C(C)(C)C)c(O)c(C(C)(C)C)c1 [BHT, butylated hydroxytoluene, reference compound]
IC50 [1]: 25 ± 4 µM | BDE ([2]; in benzene ref 45): 76.9 kcal/mol | BDE ([2]; in heptane ref 44): 79.9 kcal/mol | BDE ([2]; in toluene ref 46): 72.4 kcal/mol | FRAP [3]: 2089 ± 60 mmolFe^2+/mmolC

COc1cc(C(=O)Nc2nc3ccc(N)cc3[nH]2)cc(OC)c1OC [Compound 14, N-[5(6)-aminobenzimidazol-2-yl]-3,4,5-trimethoxybenzamide]
IC50 (MCF-7 (breast carcinoma)): 43 ± 15 µM | IC50 [4]: 76 ± 24 µM | IC50 (H 460 (lung carcinoma)): > 100 µM | ROS levels when oxidative stress was induced (HCT 116 cells): no effect | IC50 [5]: 43 ± 2 µM | antioxidant potency relative to 17 ([1]; DPPH, 14 vs 17): around four times | IC50 [1]: 10.7 ± 0.23 µM | cellular ROS production (significance vs control) (HCT116 cell line [6]): ns | mitochondrial ROS production (significance vs control) (HCT116 cell line [7]): ns | FRAP [3]: 1102.5 ± 14.1 mmolFe^2+/mmolC

O=C(Nc1nc2ccc([N+](=O)[O-])cc2s1)c1cc(O)c(O)c(O)c1 [Compound 29, 3,4,5-trihydroxy-N-(6-nitrobenzothiazol-2-yl)benzamide]
IC50 (MCF-7 (breast carcinoma)): 4 ± 0.7 µM | IC50 [4]: 7 ± 1 µM | IC50 (H 460 (lung carcinoma)): 2 ± 1 µM | ROS levels when oxidative stress was induced (HCT 116 cells): significantly reduced the ROS levels | IC50 [5]: 6 ± 4 µM | BDE increase relative to M12 ([8]; difference to M12): 0.8 kcal/mol | IC50 [1]: 2 ± 0.15 µM | FRAP [3]: 6139.2 ± 3.0 mmolFe^2+/mmolC | FRAP reducing power in comparison to standard BHT ([3]; relative to BHT): threefold higher

O=C(Nc1nc2ccccc2s1)c1ccccc1 [Compound M1]
BDE higher than that for BHT ([8]; difference to BHT (65.8)): 16.9 kcal/mol

O=C(NC1=Nc2ccccc2C1)c1ccccc1 [Compound M4]
BDE lower than BDE (M1) [8]: 10.1 kcal/mol

Nc1ccc2nc(NC(=O)c3ccccc3)sc2c1 [Compound M6]
BDE lower than BDE (M1) [8]: 7.1 kcal/mol

Nc1ccc2nc(NC(=O)c3ccccc3)sc2c1 [Compound M7]
BDE lower than BDE (BHT) ([8]; difference to BHT (65.8)): 17.5 kcal/mol

O=C(Nc1nc2ccccc2s1)c1ccc(O)cc1 [Compound M8]
BDE lower than BDE (M1) [8]: 4.8 kcal/mol

COc1ccc(C(=O)Nc2nc3ccccc3s2)cc1 [Compound M9]
BDE lower than BDE (M1) [8]: 0.5 kcal/mol

O=C(Nc1nc2ccc([N+](=O)[O-])cc2s1)c1ccc(O)cc1 [Compound M10]
lowering of antioxidative capacity (BDE increase) relative to M8 ([8]; difference to M8): 1.1 kcal/mol

COc1cc(C(=O)Nc2nc3ccc(N)cc3[nH]2)cc(OC)c1OC [Compound M22]
more potent antioxidant (lower BDE) than nitro-substituted M21 ([8]; difference to M21): ~15 kcal/mol

O=C(Nc1ccccc1)c1ccccc1 [Ph–CO–NH–Ph, reference compound]
BDE ([2]; earlier calculations of the authors ref 24): 85.3 kcal/mol

Nc1ccccc1 [Ph–NH3^+]
BDE [2, 9]: 84.9 kcal/mol

Nc1ccccc1 [aniline]
N–H BDE ([2]; in water ref 48): 89.1 kcal/mol

NC1CCCCC1 [c-C6H11–NH3^+]
BDE [2, 9]: 113.6 kcal/mol

O=C(O)c1cc(O)c(O)c(O)c1 [gallic acid]
calculated BDE [2]: 77.0 kcal/mol

Oc1ccccc1 [phenol]
calculated BDE [2]: 82.9 kcal/mol
